Data: US12600926B2, “Treatment compositions with modified amino acid dimers for delivering a benefit agent” (The Procter & Gamble Company, priority 2022, dated 2026)

Experiment: Stability of the independent neat fluid by 1H NMR
Format: physicochemical
Settings: neat premix fluid, storage
Procedure: (§1) Synthetic Example 1′ was prepared as described in General Method A, but using 10 g of L-Cystine, 17.0 g of dodecanol, and 17.4 g PTSA·H2O. The isolated fluid of Synthetic Example 1′ was then mixed with cyclamen aldehyde as described in General Method B yielding Synthetic Example 1.
as §1, with “2′” for “1′”, “5.0” for “10”, “2,6-Diaminoheptanedioic acid, 10.5” for “L-Cystine, 17.0”, “11” for “17.4”, “with 15 wt % ethanol, and” for “with”, “2A.” for “1.”
Synthetic Example 2′ was prepared as described in General Method A, but using 5.0 g of 2,6-Diaminoheptanedioic acid, 10.8 g of dodecanol, and 11.1 g PTSA H2O. The isolated fluid of Synthetic Example 2′ was then mixed with 15 wt % ethanol, and δ-Damascone, as described in General Method B yielding Synthetic Example 2B.

Stability of the independent fluid by 1H NMR | Compound
stable for several months | CCCCCCCCCCCCOC(=O)C(CCCC(NC(C)CC(=O)C1C(C)C=CCC1(C)C)C(=O)OCCCCCCCCCCCC)NC(C)CC(=O)C1C(C)C=CCC1(C)C (centres unmarked) [Synthetic Example 2B]
stable for several months | CCCCCCCCCCCCOC(=O)C(CCCC(N=CC(C)Cc1ccc(C(C)C)cc1)C(=O)OCCCCCCCCCCCC)N=CC(C)Cc1ccc(C(C)C)cc1 (centres unmarked) [Synthetic Example 2A]
